The assay deals with human childhood brain tumor cell lines (PFSK-1). Put plainly: Growth inhibitory activity against PFSK-1 cells (WST-8, Cell Counting Kit-8). The class given is cell-based. The note with it: Homo sapiens, 72 h, 3 days incubation with test compound, WST-8 OD 450/630 nm, read-out: IC50 (concentration inhibiting 50% of the cell growth). The procedure, abridged:
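Cells seeded in RPMI 1640 with 10% FBS and preincubated 24 h at 37 °C, 5% CO2, then exposed to compound for 3 days. IC50 (nM) from growth relative to untreated control.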
In general terms: Formazan colour is commonly taken as a measure of viable cells.

Consider `CC1CC(=O)NN=C1c1cc(F)c(OC/C=C\CO)c(Cl)c1F` (centres unmarked) [Example 152, 6-{3-Chloro-2,5-difluoro-4-[(Z)-4-hydroxy-2-butenyloxy]phenyl}-5-methyl-4,5-dihydro-2H-pyridazin-3-one], for which the IC50 amounted to 3.4 nM.

Turning to `Cc1c(OC/C=C\CO)ccc(C2=NNC(=O)CC2C)c1O` (centres unmarked) [Example 153, 6-{2-Hydroxy-4-[(Z)-4-hydroxy-2-butenyloxy]-3-methylphenyl}-5-methyl-4,5-dihydro-2H-pyridazin-3-one], the IC50 was determined as 5.3 nM.

For the molecule `Cc1c(F)c(C2=NNC(=O)CC2C)cc(Cl)c1OCC(F)(F)CO` (centres unmarked) [Example 158, 6-[5-Chloro-4-(2,2-difluoro-3-hydroxypropoxy)-2-fluoro-3-methylphenyl]-5-methyl-4,5-dihydro-2H-pyridazin-3-one], the IC50 is 4.3 nM.

Turning to `Cc1cc(C2=NNC(=O)CC2C)c(F)c(Cl)c1OCC(F)(F)CO` (centres unmarked) [Example 159, 6-[3-Chloro-4-(2,2-difluoro-3-hydroxypropoxy)-2-fluoro-5-methylphenyl]-5-methyl-4,5-dihydro-2H-pyridazin-3-one], the IC50 was under 1 nM.

`Cc1cc(C2=NNC(=O)CC2C)c(F)c(C)c1OCC(F)(F)CO` (centres unmarked) [Example 160, 6-[4-(2,2-Difluoro-3-hydroxypropoxy)-2-fluoro-3,5-dimethylphenyl]-5-methyl-4,5-dihydro-2H-pyridazin-3-one]: the IC50 was 1.9 nM.

For `CC1CC(=O)NN=C1c1cc(F)c(OCC(F)(F)CO)c(Cl)c1F` (centres unmarked) [Example 161, 6-[3-Chloro-4-(2,2-difluoro-3-hydroxypropoxy)-2,5-difluorophenyl]-5-methyl-4,5-dihydro-2H-pyridazin-3-one], the IC50 was found to be 2.7 nM.

As to `CC1CC(=O)NN=C1c1ccc(OCC(F)(F)CO)c(Cl)c1O` (centres unmarked) [Example 162, 6-[3-Chloro-4-(2,2-difluoro-3-hydroxypropoxy)-2-hydroxyphenyl]-5-methyl-4,5-dihydro-2H-pyridazin-3-one], the IC50 was 6.4 nM.

In the case of `CCC(O)COc1ccc(C2=NNC(=O)CC2C)c(O)c1Cl` (centres unmarked) [Example 163, 6-[3-Chloro-2-hydroxy-4-(2-hydroxybutoxy)phenyl]-5-methyl-4,5-dihydro-2H-pyridazin-3-one], the IC50 worked out at 5.2 nM.

With `Cc1cc(C2=NNC(=O)CC2C)c(O)c(Cl)c1OCC(C)O` (centres unmarked) [Example 164, 6-[3-Chloro-2-hydroxy-4-(2-hydroxypropoxy)-5-methylphenyl]-5-methyl-4,5-dihydro-2H-pyridazin-3-one], the IC50 is 4.9 nM.

In the case of `CC1CC(=O)NN=C1c1cc(Cl)c(OCC2(O)CC2)c(Br)c1` (centres unmarked) [Example 165, 6-{3-bromo-5-chloro-4-[(1-hydroxycyclopropyl)methoxy]phenyl}-5-methyl-4,5-dihydro-2H-pyridazin-3-one], the IC50 was found to be 2.6 nM.

`Cc1c(OCC2(O)CC2)ccc(C2=NNC(=O)CC2C)c1O` (centres unmarked) [Example 166, 6-{2-Hydroxy-4-[(1-hydroxycyclopropyl)methoxy]-3-methylphenyl}-5-methyl-4,5-dihydro-2H-pyridazin-3-one]: the IC50 was 4.7 nM.

On to `Cc1cc(C2=NNC(=O)CC2C)c(F)c(Cl)c1OCC1(O)CC1` (centres unmarked) [Example 167, 6-{3-Chloro-2-fluoro-4-[(1-hydroxycyclopropyl)methoxy]-5-methylphenyl}-5-methyl-4,5-dihydro-2H-pyridazin-3-one], for which the IC50 stood at 1.3 nM.

`CC1CC(=O)NN=C1c1ccc(OCC2(O)CC2)c(Br)c1F` (centres unmarked) [Example 168, 6-{3-Bromo-2-fluoro-4-[(1-hydroxycyclopropyl)methoxy]phenyl}-5-methyl-4,5-dihydro-2H-pyridazin-3-one]: the IC50 stood at 2.3 nM.

For `CC1CC(=O)NN=C1c1cc(F)c(OCC2(O)CC2)c(Br)c1` (centres unmarked) [Example 169, 6-{3-Bromo-5-fluoro-4-[(1-hydroxycyclopropyl)methoxy]phenyl}-5-methyl-4,5-dihydro-2H-pyridazin-3-one], the IC50 was determined as 4 nM.

These data come from patent US10611731B2, “5-methyl-6-phenyl-4,5-dihydro-2H-pyridazin-3-one derivative” (OTSUKA PHARMACEUTICAL CO., LTD., priority 2016, dated 2020).
